The values below come from patent US20100093867A1, “Method Of Treating Genetic Disease Caused By Nonsense Mutation” (priority 2006, published 2010).

In series [1] the test system is patients with Duchenne muscular dystrophy. Particulars: Non-patent document 1; cited from earlier work.
The test system of series [2] is airway epithelium of patients with cystic fibrosis. Particulars: topical administration to airway epithelium, Non-patent document 2; cited from earlier work.
In series [3] the test system is mouse models for muscular dystrophy. Particulars: Patent document 1; cited from earlier work.
Series [4] relates to mdx mouse. Kind of series: Side effects in mice. Particulars: subcutaneous, 4 or 400 mg/kg/day for 14 days. The class given is in vivo. How it is done:
The aforementioned compound 2 was studied for side effects in mice.
The compound 2 was injected subcutaneously to an mdx mouse at a dose of 4 or 400 mg/kg/day for 14 days.

For series [5], the system named is mdx mouse. The series can be described thus: Effect of administration on a muscular dystrophy mouse model. The class given is in vivo. Particulars: into the stomach, 4 or 400 mg/kg/day for 7 days. How it is done:
The aforementioned compound 2 was studied for its effect of administration on a muscular dystrophy mouse model. An mdx mouse was used as a muscular dystrophy mouse model. The compound 2 was administered forcibly into the stomach of an mdx mouse at a dose of 4 or 400 mg/kg/day for 7 days, and then biochemical and immuno-histochemical analyses were conducted.

Take gentamicin: in series [1], the dystrophin protein entry is “led to accumulation of dystrophin protein”. In addition, in series [2], the typical electrophysiological abnormalities result is on record as “could correct”.

With `CN(CC(=O)O)NC(=O)C[C@H](N)C[C@@H](O)CN` [negamycin], the dystrophin expression entry in series [3] is on record as “restore a dystrophin expression”.

For `CC(=O)NC(CC(N)=O)C(=O)O` (stereo not drawn) [compound 2], in series [4], the “body weight during the administration period” value is “no decrease” and the “hearing test that measures auditory brainstem response” value was “no abnormal values”. For the same compound, in series [4] (total protein, albumin, AST, ALT, ALP, γ-GTP, creatinine, glucose, lipids, electrolytes, bilirubin etc.), the “eighteen serological and biochemical tests” value is given as “no abnormal values”. Besides, in series [5], the “results compared to positive control group administered with gentamicin” value is given as “favorable results compared to a positive control group administered with gentamicin” and the “serum creatine kinase activity” value is given as “reduced”. Besides, the “dystrophin in muscles (e.g. hind limb)” value in series [5] (immuno-histochemical analysis) is “accumulated”.
